Measured values taken from ChEMBL document CHEMBL1201862, “PubChem BioAssay data set” (2004).
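Five concentrations, 48 hours, 96-well plates. Abbreviation: GI50, concentration required for 50% inhibition of growth.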 Activity calls are given as the source filed them. No stated cut-off is given here; in the data, active = GI50 up to about 1.1 µM and inactive = higher.

Assays:
Assay in all cases: NCI anticancer screen, dose series, 48 h
786-0 = tested on: 786-0
A549 = tested on: A549
ACHN = tested on: ACHN
BT-549 = tested on: BT-549
CAKI-1 = tested on: CAKI-1
CCRF-CEM = tested on: CCRF-CEM
COLO 205 = tested on: COLO 205
DU-145 = tested on: DU-145
EKVX = tested on: EKVX
HCC 2998 = tested on: HCC 2998
HCT-116 = tested on: HCT-116
HCT-15 = tested on: HCT-15
HL-60 = tested on: HL-60
HOP-62 = tested on: HOP-62
HOP-92 = tested on: HOP-92
HT-29 = tested on: HT-29
IGROV-1 = tested on: IGROV-1
K562 = tested on: K562
KM12 = tested on: KM12
LOX IMVI = tested on: LOX IMVI
M14 = tested on: M14
MCF7 = tested on: MCF7
MDA-MB-231 = tested on: MDA-MB-231
MDA-MB-435 = tested on: MDA-MB-435
MOLT-4 = tested on: MOLT-4
Malme-3M = tested on: Malme-3M
NCI-H226 = tested on: NCI-H226
NCI-H23 = tested on: NCI-H23
NCI-H460 = tested on: NCI-H460
NCI-H522 = tested on: NCI-H522
NCI/ADR-RES = tested on: NCI/ADR-RES
OVCAR-4 = tested on: OVCAR-4
OVCAR-5 = tested on: OVCAR-5
OVCAR-8 = tested on: OVCAR-8
PC-3 = tested on: PC-3
RPMI-8226 = tested on: RPMI-8226
SF-268 = tested on: SF-268
SF-295 = tested on: SF-295
SF-539 = tested on: SF-539
SK-MEL-28 = tested on: SK-MEL-28
SK-MEL-2 = tested on: SK-MEL-2
SK-MEL-5 = tested on: SK-MEL-5
SN12C = tested on: SN12C
SNB-19 = tested on: SNB-19
SNB-75 = tested on: SNB-75
SR = tested on: SR
SW-620 = tested on: SW-620
TK-10 = tested on: TK-10
U-251 = tested on: U-251
UACC-257 = tested on: UACC-257
A498 = tested on: A498
Hs-578T = tested on: Hs-578T
MDA-N = tested on: MDA-N
OVCAR-3 = tested on: OVCAR-3
RXF 393 = tested on: RXF 393
SK-OV-3 = tested on: SK-OV-3
T47D = tested on: T47D
UO-31 = tested on: UO-31
UACC-62 = tested on: UACC-62

## N#C[BH2-][n+]1ccc(C(=O)NNC(c2ccccc2)C(F)(F)F)cc1 (configuration not stated)
786-0
  GI50: > 100 µM (inactive)
A549
  GI50: > 100 µM (inactive)
ACHN
  GI50: > 100 µM (inactive)
BT-549
  GI50: > 100 µM (inactive)
CAKI-1
  GI50: > 100 µM (inactive)
CCRF-CEM
  GI50: > 100 µM (inactive)
COLO 205
  GI50: > 100 µM (inactive)
DU-145
  GI50: > 100 µM (inactive)
EKVX
  GI50: > 100 µM (inactive)
HCC 2998
  GI50: > 100 µM (inactive)
HCT-116
  GI50: > 100 µM (inactive)
HCT-15
  GI50: > 100 µM
HL-60
  GI50: > 100 µM (inactive)
HOP-62
  GI50: 97.7 µM (inactive)
HOP-92
  GI50: 1 µM (active)
HT-29
  GI50: > 100 µM (inactive)
IGROV-1
  GI50: > 100 µM (inactive)
K562
  GI50: > 100 µM (inactive)
KM12
  GI50: > 100 µM (inactive)
LOX IMVI
  GI50: > 100 µM (inactive)
M14
  GI50: > 100 µM (inactive)
MCF7
  GI50: > 100 µM (inactive)
MDA-MB-231
  GI50: > 100 µM (inactive)
MDA-MB-435
  GI50: > 100 µM (inactive)
MOLT-4
  GI50: > 100 µM (inactive)
Malme-3M
  GI50: > 100 µM (inactive)
NCI-H226
  GI50: > 100 µM (inactive)
NCI-H23
  GI50: 31.7 µM (inactive)
NCI-H460
  GI50: > 100 µM (inactive)
NCI-H522
  GI50: 68.9 µM (inactive)
NCI/ADR-RES
  GI50: > 100 µM (inactive)
OVCAR-4
  GI50: > 100 µM (inactive)
OVCAR-5
  GI50: > 100 µM (inactive)
OVCAR-8
  GI50: > 100 µM (inactive)
PC-3
  GI50: > 100 µM (inactive)
RPMI-8226
  GI50: > 100 µM (inactive)
SF-268
  GI50: > 100 µM (inactive)
SF-295
  GI50: > 100 µM (inactive)
SF-539
  GI50: > 100 µM (inactive)
SK-MEL-28
  GI50: > 100 µM (inactive)
SK-MEL-2
  GI50: > 100 µM (inactive)
SK-MEL-5
  GI50: > 100 µM (inactive)
SN12C
  GI50: > 100 µM (inactive)
SNB-19
  GI50: > 100 µM (inactive)
SNB-75
  GI50: > 100 µM (inactive)
SR
  GI50: > 100 µM (inactive)
SW-620
  GI50: > 100 µM (inactive)
TK-10
  GI50: > 100 µM (inactive)
U-251
  GI50: > 100 µM (inactive)
UACC-257
  GI50: > 100 µM (inactive)

## CCc1cc2c(cc1C(=O)CCC(=O)O)CC1(C2)Cc2cc(CC)c(C(=O)CCC(=O)O)cc2C1
786-0
  GI50: > 100 µM (inactive)
A498
  GI50: > 100 µM (inactive)
A549
  GI50: > 100 µM (inactive)
ACHN
  GI50: > 100 µM (inactive)
CAKI-1
  GI50: > 100 µM (inactive)
CCRF-CEM
  GI50: 32.2 µM (inactive)
COLO 205
  GI50: > 100 µM (inactive)
DU-145
  GI50: > 100 µM (inactive)
EKVX
  GI50: > 100 µM (inactive)
HCC 2998
  GI50: > 100 µM (inactive)
HCT-116
  GI50: > 100 µM (inactive)
HCT-15
  GI50: > 100 µM
HL-60
  GI50: > 100 µM (inactive)
HOP-62
  GI50: > 100 µM (inactive)
HOP-92
  GI50: > 100 µM (inactive)
HT-29
  GI50: > 100 µM (inactive)
Hs-578T
  GI50: > 100 µM (inactive)
IGROV-1
  GI50: > 100 µM (inactive)
K562
  GI50: 91.2 µM (inactive)
KM12
  GI50: > 100 µM (inactive)
LOX IMVI
  GI50: > 100 µM (inactive)
M14
  GI50: > 100 µM (inactive)
MCF7
  GI50: > 100 µM (inactive)
MDA-MB-231
  GI50: > 100 µM (inactive)
MDA-MB-435
  GI50: > 100 µM (inactive)
MDA-N
  GI50: > 100 µM (inactive)
MOLT-4
  GI50: > 100 µM (inactive)
Malme-3M
  GI50: 38.5 µM (inactive)
NCI-H226
  GI50: > 100 µM (inactive)
NCI-H23
  GI50: > 100 µM (inactive)
NCI-H460
  GI50: > 100 µM (inactive)
NCI-H522
  GI50: > 100 µM (inactive)
NCI/ADR-RES
  GI50: > 100 µM (inactive)
OVCAR-3
  GI50: > 100 µM (inactive)
OVCAR-4
  GI50: > 100 µM (inactive)
OVCAR-5
  GI50: > 100 µM (inactive)
OVCAR-8
  GI50: > 100 µM (inactive)
PC-3
  GI50: > 100 µM (inactive)
RPMI-8226
  GI50: 63.1 µM (inactive)
RXF 393
  GI50: > 100 µM (inactive)
SF-268
  GI50: 82.4 µM (inactive)
SF-295
  GI50: > 100 µM (inactive)
SF-539
  GI50: > 100 µM (inactive)
SK-MEL-28
  GI50: 35.6 µM (inactive)
SK-MEL-2
  GI50: 99.8 µM (inactive)
SK-MEL-5
  GI50: > 100 µM (inactive)
SK-OV-3
  GI50: > 100 µM (inactive)
SN12C
  GI50: > 100 µM (inactive)
SNB-19
  GI50: > 100 µM (inactive)
SNB-75
  GI50: 50.5 µM (inactive)
SW-620
  GI50: > 100 µM (inactive)
T47D
  GI50: > 100 µM (inactive)
TK-10
  GI50: > 100 µM (inactive)
U-251
  GI50: > 100 µM (inactive)
UACC-257
  GI50: > 100 µM (inactive)
UO-31
  GI50: > 100 µM (inactive)

## CCOC(=O)c1c(N2CCCC2)nsc1Nc1ccc(F)cc1
786-0
  GI50: 26.1 µM (inactive)
A498
  GI50: 40 µM (inactive)
A549
  GI50: 27.9 µM (inactive)
ACHN
  GI50: 31.2 µM (inactive)
CAKI-1
  GI50: 37.5 µM (inactive)
CCRF-CEM
  GI50: 28.1 µM (inactive)
COLO 205
  GI50: 48.5 µM (inactive)
DU-145
  GI50: 45.3 µM (inactive)
EKVX
  GI50: 8.38 µM (inactive)
HCC 2998
  GI50: 31.4 µM (inactive)
HCT-116
  GI50: 29.7 µM (inactive)
HCT-15
  GI50: 29.6 µM
HL-60
  GI50: 20.4 µM (inactive)
HOP-62
  GI50: 63.5 µM (inactive)
HOP-92
  GI50: 28.7 µM (inactive)
HT-29
  GI50: 23.6 µM (inactive)
Hs-578T
  GI50: 40.9 µM (inactive)
IGROV-1
  GI50: 55 µM (inactive)
K562
  GI50: 29.8 µM (inactive)
KM12
  GI50: 42.2 µM (inactive)
LOX IMVI
  GI50: 53.7 µM (inactive)
M14
  GI50: 48.8 µM (inactive)
MDA-MB-231
  GI50: 39.4 µM (inactive)
MDA-MB-435
  GI50: 28.8 µM (inactive)
MDA-N
  GI50: 34.9 µM (inactive)
MOLT-4
  GI50: 23.9 µM (inactive)
Malme-3M
  GI50: 21.9 µM (inactive)
NCI-H226
  GI50: 60.4 µM (inactive)
NCI-H23
  GI50: 27.1 µM (inactive)
NCI-H460
  GI50: 27 µM (inactive)
NCI-H522
  GI50: 33.5 µM (inactive)
NCI/ADR-RES
  GI50: 34 µM (inactive)
OVCAR-3
  GI50: > 100 µM (inactive)
OVCAR-4
  GI50: 64.4 µM (inactive)
OVCAR-5
  GI50: 25.4 µM (inactive)
OVCAR-8
  GI50: 41.4 µM (inactive)
PC-3
  GI50: 20.4 µM (inactive)
RPMI-8226
  GI50: 36.6 µM (inactive)
RXF 393
  GI50: 13.6 µM (inactive)
SF-268
  GI50: 73.6 µM (inactive)
SF-295
  GI50: 60 µM (inactive)
SF-539
  GI50: 64.7 µM (inactive)
SK-MEL-28
  GI50: 54.3 µM (inactive)
SK-MEL-2
  GI50: 19.2 µM (inactive)
SK-MEL-5
  GI50: 18 µM (inactive)
SK-OV-3
  GI50: 41 µM (inactive)
SN12C
  GI50: 36.3 µM (inactive)
SNB-19
  GI50: > 100 µM (inactive)
SR
  GI50: 45.7 µM (inactive)
SW-620
  GI50: 40.4 µM (inactive)
T47D
  GI50: 9.57 µM (inactive)
TK-10
  GI50: 57.7 µM (inactive)
U-251
  GI50: 41.9 µM (inactive)
UACC-257
  GI50: 45.1 µM (inactive)
UACC-62
  GI50: 45.4 µM (inactive)
UO-31
  GI50: 16 µM (inactive)
